Assay results: article PMC11277421, “Advancing Cardiovascular Drug Screening Using Human Pluripotent Stem Cell-Derived Cardiomyocytes” (International Journal of Molecular Sciences, 2024)
“Also recorded” adds a separate entry of the source.

Assays:
hPSCs = assay: Optimization of CHIR99021 concentration for hPSC-CM generation (morphology, cTnT FACS); assay type: cell-based, human; conditions: tested 0, 6, 9, 12 μM; morphology and cTnT expression on D10
Text: To optimize the culture conditions for CM generation from hPSCs (iPSCs and ESCs), cells were propagated on Matrigel-coated culture plates with maintenance medium, as described in the Section 4. Subsequently, hPSCs underwent differentiation for 10 days, followed by maturation for another 10 days or longer if needed (Figure 1a). For the initial induction of mesodermal differentiation, CHIR99021, a GSK3 inhibitor and Wnt activator, was used. On the first day of hPSC cm generation, hPSCs were treated with CHIR99021 at various concentrations (0, 6, 9, and 12 μM) (Figure 1b). The optimal concentration of CHIR99021 for the efficient generation of hPSC-CMs was determined to be 9 μM based on their morphology and cTnT expression (Figure 1b). For further differentiation into cardiac progenitor cells, Wnt-C59, a small molecule that inhibits Wnt palmitoylation, was added to the differentiation medium from D2 to D4. For late differentiation into contracting CMs from D6 to D10, insulin was added. Contracting CMs were observed between D9 and D11 (Supplementary Figure S1). During differentiation over 10 days, there were changes in the expression levels of CM-related genes (Figure 1c). […] Moreover, GATA4, NKX2.5, TBX5, and ISL1, transcription factors that play key roles in cardiac development, were highly expressed on D10 compared with D0 or D5, indicating the induction of cardiac lineage cells. […]

iPSC-CMs [1] = assay: Cardiotoxicity test: spontaneous calcium oscillations (FLIPR, EarlyTox dye); conditions: for EC50: Homo sapiens, iPSC-CM, read-out: EC50 (beating rate, calcium oscillations); for effect on beating rate: iPSC-CMs, concentration-dependent
Procedure: Spontaneous calcium oscillations in iPSC-CMs were measured using the FLIPR system in the absence or presence of test compounds. […] This approach allowed the evaluation of proarrhythmic effects of drug candidates based on calcium dynamics occurring within the iPSC-CMs.
Figure 4 Utilization of hPSC-CMs as a platform for high-throughput testing of the cardiotoxicity and effectiveness of drugs. Spontaneous calcium oscillations in iPSC-CMs were measured using the FLIPR system in the absence or presence of test compounds. (a,b) Cardiotoxicity test. […] (b) Testing of the compounds known for their adverse effects in humans. […] (c,d) Efficacy test. (c) iPSC-CMs (c1) and ESC-CMs (c2) were treated with 200 nM ATX-II, a late inward sodium current inducer, which produces atrial arrhythmias mimicking the LQT3 phenotype, followed by exposure to a test compound. […] Error bars, mean ± SEM (N = 3). Asterisks, *—statistically significant differences (Student’s t-test; p < 0.05).
Spontaneous calcium transients in contracting CMs were monitored using the FLIPR Tetra® High Throughput Cellular Screening System (Molecular Devices). hPSC-CMs were plated on the Matrigel-coated wells (8 × 10^4 cells per well) of a 96-well plate. Confluency was monitored after 2 days, and the strong synchronous contractions of cells were confirmed prior to the cardiac calcium oscillation assay. Experiments were conducted after 7–10 days of cell culture. The EarlyTox^TM Cardiotoxicity Kit (Molecular Devices) was used; a calcium-sensitive fluorescent dye was added to the plate according to the manufacturer’s instructions and incubated for 2 h at 37 °C. […] Calcium oscillations were measured at 20, 40, and 60 min after treatment. The acquired data were analyzed for beat frequency and peak width at 10% amplitude using ScreenWorks Peak Pro software version 2.0 (Molecular Devices).

iPSC-CMs [2] = assay: Efficacy test: ATX-II-induced LQT3 phenotype, calcium oscillations in iPSC-CMs; assay type: cell-based, human; conditions: for average peak width after ATX-II, reversal by test compound: iPSC-CMs pretreated with 200 nM ATX-II
Text: (§1) (a,b) Cardiotoxicity test. […] (c,d) Efficacy test. […] Error bars, mean ± SEM (N = 3).
(§2) For the efficacy test (Figure 4c), iPSC-CMs and ESC-CMs were generated as previously mentioned and used to screen effective compounds for reversing arrhythmia phenotype.

ESC-CMs = assay: Efficacy test: ATX-II-induced LQT3 phenotype, calcium oscillations in ESC-CMs; assay type: cell-based, human; conditions: for average peak width after ATX-II, reversal by test compound: ESC-CMs pretreated with 200 nM ATX-II
Text: as §1, §2

| Compound | EC50 (iPSC-CMs [1]) [µM] | effect on beating rate (iPSC-CMs [1]) | other results |
| --- | --- | --- | --- |
| Cc1c[nH]c(-c2cnc(NCCNc3ccc(C#N)cn3)nc2-c2ccc(Cl)cc2Cl)n1 [CHIR99021] |  |  | optimal concentration for efficient generation of hPSC-CMs (hPSCs): 9 µM |
| COc1ccc([C@@H]2Sc3ccccc3N(CCN(C)C)C(=O)[C@@H]2OC(C)=O)cc1 [diltiazem] | 5.97 | increased the beating rate |  |
| CN(CCOc1ccc(NS(C)(=O)=O)cc1)CCc1ccc(NS(C)(=O)=O)cc1 [dofetilide] | 0.018 | decrease in the beating rate |  |
| O=C(NCC1CCCCN1)c1cc(OCC(F)(F)F)ccc1OCC(F)(F)F (centres unmarked) [flecainide] | 17.5 | inhibited the beating rates |  |
| CC(C)c1nc(CN(C)C(=O)N[C@H](C(=O)N[C@@H](Cc2ccccc2)C[C@H](O)[C@H](Cc2ccccc2)NC(=O)OCc2cncs2)C(C)C)cs1 [ritonavir] | 6.09 | inhibited the beating rates |  |
| CCCN1CCCC[C@H]1C(=O)Nc1c(C)cccc1C [ropivacaine] |  |  | average peak width after ATX-II, reversal by test compound (iPSC-CMs [2]): restored to the level of untreated control cells; also recorded: significantly reverted the average peak width to the level of untreated control cells; average peak width after ATX-II, reversal by test compound (ESC-CMs): restored to the level of untreated control cells; also recorded: significantly reverted the average peak width to the level of untreated control cells |
| CCCN(CCc1cccs1)[C@H]1CCc2c(O)cccc2C1 [rotigotine] |  |  | average peak width after ATX-II, reversal by test compound (iPSC-CMs [2]): restored to the level of untreated control cells; also recorded: significantly reverted the average peak width to the level of untreated control cells; average peak width after ATX-II, reversal by test compound (ESC-CMs): restored to the level of untreated control cells; also recorded: significantly reverted the average peak width to the level of untreated control cells |
| COc1ccc(CCN(C)CCCC(C#N)(c2ccc(OC)c(OC)c2)C(C)C)cc1OC (centres unmarked) [verapamil] | 0.522 | increased the beating rate |  |
| ATX-II: late inward sodium current inducer known to produce atrial arrhythmias, mimicking LQT3 |  |  | average peak width (effect of ATX-II itself) (iPSC-CMs [2]; 200 nM, iPSC-CMs): higher average peak widths; average peak width (effect of ATX-II itself) (ESC-CMs; 200 nM, ESC-CMs): higher average peak widths |
